Measured values published in the NIST ThermoML archive (doi:10.1016/j.jct.2017.06.018).
± gives the expanded uncertainty stated by the source.

Settings: Liquid, Closed cell (Static) method

C=C(F)C(F)(F)F [2,3,3,3-tetrafluoro-1-propene]
Settings	vapor or sublimation pressure [kPa]
243.15 K	99.4 ± 1.6
248.15 K	123.2 ± 1.6
253.15 K	151.4 ± 1.6
258.15 K	184.2 ± 1.6
263.15 K	222.4 ± 1.6
268.15 K	266.9 ± 1.6
273.15 K	317.2 ± 1.7
278.15 K	374.4 ± 1.7
283.15 K	438.5 ± 1.7
288.15 K	511.9 ± 1.8
293.15 K	591.7 ± 1.8
